# Measured values from ChEMBL document CHEMBL1143902, “Design and synthesis of a pyrido[2,3-d]pyrimidin-5-one class of anti-inflammatory FMS inhibitors” (Bioorg Med Chem Lett, 2008).
# Assays:
# [1] = biological target: T1, Macrophage colony-stimulating factor 1 receptor (Homo sapiens, UniProt P07333)
# Description: Inhibition of ATP-induced CSF1R autophosphorylation
# [2] = test system: Macrophage; assay: Inhibition of CSF1-induced proliferation of mouse bone marrow derived macrophages
# [3] = Inhibition of IRKbeta
# [4] = biological target: T1, Macrophage colony-stimulating factor 1 receptor; assay: Inhibition of CSF1R
# [5] = Clearance in rat at 2 mg/kg, iv; assay type: ADME, organism-based; set-up: dose 2 mg/kg, route intravenous; conditions: in vivo
# [6] = Volume of distribution in rat at 2 mg/kg, iv; assay type: ADME, organism-based; set-up: dose 2 mg/kg, route intravenous; conditions: in vivo
# [7] = biological target: T2, Tyrosine-protein kinase receptor UFO (Homo sapiens, UniProt P30530); assay: Inhibition of Axl
# T2 sequence (P30530 whole entry): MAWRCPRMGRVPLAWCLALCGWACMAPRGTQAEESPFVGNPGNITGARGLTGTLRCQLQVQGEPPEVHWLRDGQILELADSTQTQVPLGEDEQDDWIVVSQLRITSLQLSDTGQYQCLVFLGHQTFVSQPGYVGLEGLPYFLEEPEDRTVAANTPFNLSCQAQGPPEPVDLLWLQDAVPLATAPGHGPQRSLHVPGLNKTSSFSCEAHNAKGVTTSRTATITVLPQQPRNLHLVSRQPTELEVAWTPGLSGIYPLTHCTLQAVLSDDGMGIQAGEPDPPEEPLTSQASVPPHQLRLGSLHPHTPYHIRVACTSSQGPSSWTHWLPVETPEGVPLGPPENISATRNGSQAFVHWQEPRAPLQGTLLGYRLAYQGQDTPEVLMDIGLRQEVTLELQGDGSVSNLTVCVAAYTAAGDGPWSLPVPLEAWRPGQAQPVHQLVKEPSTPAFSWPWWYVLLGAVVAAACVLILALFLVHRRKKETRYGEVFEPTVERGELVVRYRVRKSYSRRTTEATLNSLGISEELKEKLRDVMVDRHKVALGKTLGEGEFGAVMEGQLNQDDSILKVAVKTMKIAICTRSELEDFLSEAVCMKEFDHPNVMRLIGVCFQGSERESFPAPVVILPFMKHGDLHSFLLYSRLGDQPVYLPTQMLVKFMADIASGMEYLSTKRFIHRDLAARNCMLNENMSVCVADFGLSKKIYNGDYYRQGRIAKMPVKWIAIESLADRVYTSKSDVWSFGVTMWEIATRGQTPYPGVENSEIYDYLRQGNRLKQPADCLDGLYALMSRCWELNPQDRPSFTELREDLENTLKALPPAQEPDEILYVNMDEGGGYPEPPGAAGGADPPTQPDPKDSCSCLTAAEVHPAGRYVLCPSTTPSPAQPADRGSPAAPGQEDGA
# [8] = biological target: Mast/stem cell growth factor receptor Kit (Homo sapiens, UniProt P10721); assay: Inhibition of KIT
# [9] = biological target: Proto-oncogene tyrosine-protein kinase Src (Homo sapiens, UniProt P12931); assay: Inhibition of Src
# [10] = biological target: T3, Receptor-type tyrosine-protein kinase FLT3 (Homo sapiens, UniProt P36888); assay: Inhibition of FLT3
# T3 sequence (P36888 whole entry): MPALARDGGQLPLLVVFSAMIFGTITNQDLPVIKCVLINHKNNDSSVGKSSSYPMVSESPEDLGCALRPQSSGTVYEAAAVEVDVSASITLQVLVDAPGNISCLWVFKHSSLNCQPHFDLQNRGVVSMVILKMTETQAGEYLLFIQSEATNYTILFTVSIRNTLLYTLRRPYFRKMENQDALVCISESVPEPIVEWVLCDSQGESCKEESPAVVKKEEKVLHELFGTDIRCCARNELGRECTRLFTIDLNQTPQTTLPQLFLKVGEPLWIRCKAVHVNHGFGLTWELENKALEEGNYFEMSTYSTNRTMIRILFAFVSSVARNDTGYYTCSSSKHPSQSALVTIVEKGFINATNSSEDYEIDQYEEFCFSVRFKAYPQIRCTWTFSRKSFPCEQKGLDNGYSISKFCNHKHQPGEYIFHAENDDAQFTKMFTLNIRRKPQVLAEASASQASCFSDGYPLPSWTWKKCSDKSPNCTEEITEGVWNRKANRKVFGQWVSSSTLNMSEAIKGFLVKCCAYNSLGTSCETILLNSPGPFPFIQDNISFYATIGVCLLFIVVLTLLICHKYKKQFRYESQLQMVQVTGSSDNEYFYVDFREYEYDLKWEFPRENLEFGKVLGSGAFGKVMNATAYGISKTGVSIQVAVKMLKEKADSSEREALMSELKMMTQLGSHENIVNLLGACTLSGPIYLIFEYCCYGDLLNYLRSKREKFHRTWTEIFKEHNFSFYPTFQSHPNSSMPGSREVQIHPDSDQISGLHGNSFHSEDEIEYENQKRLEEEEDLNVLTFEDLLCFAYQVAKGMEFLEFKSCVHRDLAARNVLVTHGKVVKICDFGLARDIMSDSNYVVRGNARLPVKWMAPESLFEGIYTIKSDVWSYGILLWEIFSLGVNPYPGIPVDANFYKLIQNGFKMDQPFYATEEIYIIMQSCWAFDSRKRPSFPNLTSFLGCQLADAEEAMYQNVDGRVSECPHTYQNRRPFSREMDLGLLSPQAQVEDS
# [11] = Metabolic stability in human liver microsomes after 10 mins; assay type: ADME, Microsome; conditions: read-out: Stability
# [12] = Metabolic stability in rat liver microsomes after 10 mins; assay type: ADME, Microsome; conditions: read-out: Stability
# [13] = biological target: T4, Adenosine receptor A3 (Homo sapiens) (UniProt P0DMS8); assay: Inhibition of human A3 receptor at 5 uM
# T4 sequence (whole entry): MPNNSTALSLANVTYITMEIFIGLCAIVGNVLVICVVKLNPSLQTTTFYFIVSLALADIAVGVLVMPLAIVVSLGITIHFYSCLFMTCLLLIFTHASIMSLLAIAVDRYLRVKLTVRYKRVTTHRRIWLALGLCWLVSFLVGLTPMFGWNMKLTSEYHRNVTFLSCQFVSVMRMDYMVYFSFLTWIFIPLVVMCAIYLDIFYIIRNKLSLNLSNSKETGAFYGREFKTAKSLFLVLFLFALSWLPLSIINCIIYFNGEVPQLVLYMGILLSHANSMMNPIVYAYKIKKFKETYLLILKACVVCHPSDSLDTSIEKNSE
# [14] = biological target: Platelet-derived growth factor receptor beta (Homo sapiens, UniProt P09619); assay: Inhibition of PDGFRbeta
# [15] = biological target: High affinity nerve growth factor receptor (Homo sapiens, UniProt P04629); assay: Inhibition of TrkA
# [16] = biological target: T4, Adenosine receptor A3 (Homo sapiens); assay: Inhibition of human A3 receptor at 10 uM
# [17] = test system: Mus musculus; assay: Inhibition of LPS-induced TNFalpha production in Swiss Webster mouse plasma at 20 mg/kg, ip after 90 mins; assay type: functional; set-up: scale not given: the % may be the effect or the level left; conditions: route intraperitoneal
# [18] = test system: Mus musculus; assay: Inhibition of LPS-induced TNFalpha production in Swiss Webster mouse plasma at 50 mg/kg, ip after 90 mins; assay type: functional; set-up: scale not given: the % may be the effect or the level left; conditions: route intraperitoneal
# [19] = Bioavailability in rat 10 mg/kg, po; assay type: ADME, organism-based; conditions: in vivo
# [20] = biological target: Adenosine receptor A2a (Homo sapiens) (UniProt P29274); assay: Inhibition of human A2A receptor at 10 uM
# Adenosine receptor A2a (Homo sapiens), sequence (P29274 whole entry): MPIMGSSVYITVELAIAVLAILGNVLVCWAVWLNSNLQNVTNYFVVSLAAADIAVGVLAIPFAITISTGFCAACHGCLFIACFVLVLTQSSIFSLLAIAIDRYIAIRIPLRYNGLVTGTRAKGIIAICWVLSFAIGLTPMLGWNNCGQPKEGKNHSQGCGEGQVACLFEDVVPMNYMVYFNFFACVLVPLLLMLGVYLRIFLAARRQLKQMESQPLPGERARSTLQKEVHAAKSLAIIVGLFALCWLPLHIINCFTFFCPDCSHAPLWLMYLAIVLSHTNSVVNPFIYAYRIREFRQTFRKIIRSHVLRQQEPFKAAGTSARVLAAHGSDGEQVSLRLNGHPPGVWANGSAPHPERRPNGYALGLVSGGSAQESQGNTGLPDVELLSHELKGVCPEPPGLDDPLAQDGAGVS
# T1 sequence (P07333 whole entry): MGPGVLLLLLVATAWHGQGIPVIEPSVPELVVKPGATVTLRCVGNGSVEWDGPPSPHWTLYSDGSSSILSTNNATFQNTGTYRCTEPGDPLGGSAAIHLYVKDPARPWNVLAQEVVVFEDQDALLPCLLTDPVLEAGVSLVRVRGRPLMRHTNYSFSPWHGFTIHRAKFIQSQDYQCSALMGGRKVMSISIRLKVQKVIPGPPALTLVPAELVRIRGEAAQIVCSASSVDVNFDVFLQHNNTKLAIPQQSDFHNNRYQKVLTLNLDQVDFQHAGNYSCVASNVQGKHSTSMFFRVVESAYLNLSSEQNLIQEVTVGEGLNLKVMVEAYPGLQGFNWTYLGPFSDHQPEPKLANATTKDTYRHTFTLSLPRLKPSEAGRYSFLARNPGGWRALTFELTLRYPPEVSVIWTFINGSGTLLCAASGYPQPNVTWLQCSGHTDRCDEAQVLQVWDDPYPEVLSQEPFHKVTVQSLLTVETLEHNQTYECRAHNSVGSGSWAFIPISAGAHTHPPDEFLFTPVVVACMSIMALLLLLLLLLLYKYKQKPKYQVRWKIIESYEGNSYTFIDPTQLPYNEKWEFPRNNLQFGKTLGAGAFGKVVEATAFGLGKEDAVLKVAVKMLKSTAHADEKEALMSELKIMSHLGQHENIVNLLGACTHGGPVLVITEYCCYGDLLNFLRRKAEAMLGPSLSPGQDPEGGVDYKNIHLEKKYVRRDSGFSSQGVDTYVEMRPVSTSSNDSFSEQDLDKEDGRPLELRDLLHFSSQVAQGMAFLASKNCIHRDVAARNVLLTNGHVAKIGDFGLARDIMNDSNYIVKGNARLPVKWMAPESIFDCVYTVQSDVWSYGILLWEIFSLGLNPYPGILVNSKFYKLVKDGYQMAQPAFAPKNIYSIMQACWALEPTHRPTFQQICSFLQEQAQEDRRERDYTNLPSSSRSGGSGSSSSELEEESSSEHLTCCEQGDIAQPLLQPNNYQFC
# Platelet-derived growth factor receptor beta, sequence (P09619 whole entry): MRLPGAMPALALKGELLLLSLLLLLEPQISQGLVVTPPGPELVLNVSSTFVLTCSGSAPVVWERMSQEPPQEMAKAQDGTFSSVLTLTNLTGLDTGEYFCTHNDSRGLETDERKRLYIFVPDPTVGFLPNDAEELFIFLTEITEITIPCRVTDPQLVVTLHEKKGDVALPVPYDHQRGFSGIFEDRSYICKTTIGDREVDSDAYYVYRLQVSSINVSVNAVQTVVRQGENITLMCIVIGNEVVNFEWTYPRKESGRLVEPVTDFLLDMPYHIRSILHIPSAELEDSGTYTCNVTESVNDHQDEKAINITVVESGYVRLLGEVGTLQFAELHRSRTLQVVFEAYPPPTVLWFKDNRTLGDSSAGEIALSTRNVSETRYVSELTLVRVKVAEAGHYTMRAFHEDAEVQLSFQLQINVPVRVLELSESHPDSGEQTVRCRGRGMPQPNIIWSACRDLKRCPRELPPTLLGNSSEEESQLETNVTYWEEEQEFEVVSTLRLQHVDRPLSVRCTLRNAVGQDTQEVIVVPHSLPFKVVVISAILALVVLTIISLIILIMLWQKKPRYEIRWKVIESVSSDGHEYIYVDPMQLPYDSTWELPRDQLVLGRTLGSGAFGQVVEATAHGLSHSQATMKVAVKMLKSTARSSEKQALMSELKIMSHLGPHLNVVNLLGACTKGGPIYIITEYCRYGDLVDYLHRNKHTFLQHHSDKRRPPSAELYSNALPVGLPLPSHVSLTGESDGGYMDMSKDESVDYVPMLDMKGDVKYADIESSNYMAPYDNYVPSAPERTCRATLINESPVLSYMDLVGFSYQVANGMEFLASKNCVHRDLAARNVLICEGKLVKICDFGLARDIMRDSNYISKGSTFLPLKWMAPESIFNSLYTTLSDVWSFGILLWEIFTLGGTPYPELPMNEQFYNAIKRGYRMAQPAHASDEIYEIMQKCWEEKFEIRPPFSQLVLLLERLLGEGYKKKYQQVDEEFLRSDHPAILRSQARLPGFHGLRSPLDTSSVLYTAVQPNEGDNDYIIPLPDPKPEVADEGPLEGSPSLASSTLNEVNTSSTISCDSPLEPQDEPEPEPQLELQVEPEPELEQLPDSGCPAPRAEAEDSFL
# High affinity nerve growth factor receptor, sequence (P04629 whole entry): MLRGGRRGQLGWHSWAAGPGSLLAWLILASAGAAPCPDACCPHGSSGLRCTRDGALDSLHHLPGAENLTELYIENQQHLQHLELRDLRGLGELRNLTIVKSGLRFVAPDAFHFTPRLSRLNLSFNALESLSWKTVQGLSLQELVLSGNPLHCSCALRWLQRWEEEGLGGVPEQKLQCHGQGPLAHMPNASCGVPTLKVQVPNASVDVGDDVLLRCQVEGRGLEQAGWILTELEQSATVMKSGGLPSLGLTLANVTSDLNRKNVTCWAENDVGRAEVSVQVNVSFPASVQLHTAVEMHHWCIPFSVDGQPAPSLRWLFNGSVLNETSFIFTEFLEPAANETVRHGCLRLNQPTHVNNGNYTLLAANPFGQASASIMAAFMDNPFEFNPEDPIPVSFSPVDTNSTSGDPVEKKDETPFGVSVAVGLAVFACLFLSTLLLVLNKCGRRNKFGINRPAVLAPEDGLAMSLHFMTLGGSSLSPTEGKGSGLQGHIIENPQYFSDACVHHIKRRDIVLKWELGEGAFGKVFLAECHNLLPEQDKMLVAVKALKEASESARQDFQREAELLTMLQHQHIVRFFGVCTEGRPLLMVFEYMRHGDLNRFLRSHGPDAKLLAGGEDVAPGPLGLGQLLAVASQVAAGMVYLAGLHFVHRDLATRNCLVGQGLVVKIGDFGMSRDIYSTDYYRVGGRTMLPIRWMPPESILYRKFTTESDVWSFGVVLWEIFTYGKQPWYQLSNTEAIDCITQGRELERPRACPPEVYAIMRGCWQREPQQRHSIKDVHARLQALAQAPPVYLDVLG
# Mast/stem cell growth factor receptor Kit, sequence (P10721 whole entry): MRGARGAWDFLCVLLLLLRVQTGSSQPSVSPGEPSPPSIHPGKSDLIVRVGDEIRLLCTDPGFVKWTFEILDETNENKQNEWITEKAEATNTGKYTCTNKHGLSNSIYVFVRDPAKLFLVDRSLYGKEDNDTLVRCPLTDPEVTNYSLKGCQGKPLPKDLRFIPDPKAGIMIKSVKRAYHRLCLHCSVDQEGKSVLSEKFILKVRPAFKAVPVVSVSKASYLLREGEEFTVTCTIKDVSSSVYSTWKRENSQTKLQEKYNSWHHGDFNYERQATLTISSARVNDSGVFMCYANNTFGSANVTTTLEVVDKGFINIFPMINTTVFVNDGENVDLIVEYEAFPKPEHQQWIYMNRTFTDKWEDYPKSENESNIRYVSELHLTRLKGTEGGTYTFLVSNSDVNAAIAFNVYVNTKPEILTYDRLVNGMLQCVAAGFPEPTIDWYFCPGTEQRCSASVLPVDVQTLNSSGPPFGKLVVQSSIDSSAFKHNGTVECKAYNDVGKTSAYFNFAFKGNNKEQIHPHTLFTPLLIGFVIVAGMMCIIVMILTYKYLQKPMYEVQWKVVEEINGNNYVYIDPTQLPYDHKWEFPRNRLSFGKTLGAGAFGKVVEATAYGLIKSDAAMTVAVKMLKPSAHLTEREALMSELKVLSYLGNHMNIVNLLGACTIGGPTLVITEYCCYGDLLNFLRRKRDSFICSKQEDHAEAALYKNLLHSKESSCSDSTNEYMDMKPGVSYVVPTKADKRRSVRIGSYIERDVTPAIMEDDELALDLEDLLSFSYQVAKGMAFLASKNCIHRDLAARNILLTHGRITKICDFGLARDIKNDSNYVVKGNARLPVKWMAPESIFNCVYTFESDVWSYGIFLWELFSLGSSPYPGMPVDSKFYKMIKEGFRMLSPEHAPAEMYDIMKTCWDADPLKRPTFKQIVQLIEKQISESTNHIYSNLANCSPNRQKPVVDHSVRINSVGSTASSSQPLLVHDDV
# Proto-oncogene tyrosine-protein kinase Src, sequence (P12931 2-536 limits assumed): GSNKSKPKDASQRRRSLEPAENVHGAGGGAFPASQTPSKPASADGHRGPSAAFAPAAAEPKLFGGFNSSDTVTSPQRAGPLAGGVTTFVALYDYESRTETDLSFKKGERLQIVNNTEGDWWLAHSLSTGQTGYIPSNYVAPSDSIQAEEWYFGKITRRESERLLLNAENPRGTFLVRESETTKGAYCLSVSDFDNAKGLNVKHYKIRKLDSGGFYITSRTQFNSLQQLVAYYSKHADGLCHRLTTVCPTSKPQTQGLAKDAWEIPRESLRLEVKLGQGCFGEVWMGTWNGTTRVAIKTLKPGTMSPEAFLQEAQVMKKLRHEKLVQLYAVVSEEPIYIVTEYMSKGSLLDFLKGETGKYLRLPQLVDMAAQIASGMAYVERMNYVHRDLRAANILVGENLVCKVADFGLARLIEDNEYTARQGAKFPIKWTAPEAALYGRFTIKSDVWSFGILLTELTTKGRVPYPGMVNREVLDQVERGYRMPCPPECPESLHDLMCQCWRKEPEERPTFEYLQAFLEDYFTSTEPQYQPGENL
smiles,measurement,setting,value
CN1CCN(CCCNc2ncc3c(=O)c(C(N)=O)cn(-c4ccc5c(c4)CCC5)c3n2)CC1,IC50,[1],1800 nM
NC(=O)c1cn(-c2ccc3c(c2)CCC3)c2nc(Nc3cccc(C(=O)N4CCCCC4)c3)ncc2c1=O,IC50,[2],14 nM
CN1CCN(c2ccc(Nc3ncc4c(=O)c(C(N)=O)cn(-c5ccc6c(c5)CCC6)c4n3)cc2)CC1,IC50,[3],> 1000 nM
same,IC50,[4],13 nM
same,clearance,[5],133 mL/min/kg
same,Vd,[6],18.7 L/kg
same,IC50,[7],> 300 nM
same,IC50,[8],56 nM
same,IC50,[9],1000 nM
same,IC50,[10],3 nM
same,IC50,[2],16 nM
same,remaining at 10 min,[11],80.5%
same,remaining at 10 min,[12],87.3%
same,inhibition,[13],55%
same,IC50,[14],> 1000 nM
same,IC50,[15],200 nM
CCOC(=O)c1cn(-c2ccc3c(c2)CCC3)c2nc(Nc3ccc(N4CCN(C)CC4)cc3)ncc2c1=O,IC50,[1],250 nM
same,IC50,[2],470 nM
NC(=O)c1cn(-c2ccc3c(c2)CCC3)c2nc(Nc3ccc(C[C@H]4COC(=O)N4)cc3)ncc2c1=O,IC50,[2],90 nM
CC1CN(c2ccc(Nc3ncc4c(=O)c(C(N)=O)cn(-c5ccc6c(c5)CCC6)c4n3)cc2)CC(C)N1 (centres undefined),IC50,[2],3 nM
NC(=O)c1cn(-c2ccc3c(c2)CCC3)c2nc(Nc3ccc(CCN4CCOCC4)cc3)ncc2c1=O,IC50,[1],8 nM
same,IC50,[2],8 nM
same,remaining at 10 min,[11],58%
same,remaining at 10 min,[12],83%
CN1CCN(CCc2ccc(Nc3ncc4c(=O)c(C(N)=O)cn(-c5ccc6c(c5)CCC6)c4n3)cc2)CC1,IC50,[2],9 nM
same,remaining at 10 min,[11],96%
same,remaining at 10 min,[12],84%
CN1CCN(Cc2ccc(Nc3ncc4c(=O)c(C(N)=O)cn(-c5ccc6c(c5)CCC6)c4n3)cc2)CC1,IC50,[3],> 2000 nM
same,inhibition,[16],60%
same,clearance,[5],29 mL/min/kg
same,Vd,[6],26.5 L/kg
same,Activity,[17],81%
same,IC50,[7],> 500 nM
same,Activity,[18],87%
same,IC50,[8],28 nM
same,IC50,[9],1500 nM
same,IC50,[10],1 nM
same,IC50,[2],11 nM
same,remaining at 10 min,[11],74%
same,bioavailability,[19],4%
same,remaining at 10 min,[12],54%
same,inhibition,[20],58%
same,IC50,[14],> 2000 nM
same,IC50,[15],310 nM
CN(C)Cc1ccc(Nc2ncc3c(=O)c(C(N)=O)cn(-c4ccc5c(c4)CCC5)c3n2)cc1,IC50,[2],4 nM
same,remaining at 10 min,[11],35%
same,remaining at 10 min,[12],38%
CN(C)CCc1ccc(Nc2ncc3c(=O)c(C(N)=O)cn(-c4ccc5c(c4)CCC5)c3n2)cc1,IC50,[2],16 nM
same,remaining at 10 min,[11],88%
same,remaining at 10 min,[12],65%
CN1CCN(c2cccc(Nc3ncc4c(=O)c(C(N)=O)cn(-c5ccc6c(c5)CCC6)c4n3)c2)CC1,IC50,[2],6 nM
NC(=O)c1cn(-c2ccc3c(c2)CCC3)c2nc(Nc3ccccc3)ncc2c1=O,IC50,[1],280 nM
NC(=O)c1cn(-c2ccc3c(c2)CCC3)c2nc(Nc3ccc(N4CCNCC4)cc3)ncc2c1=O,IC50,[2],4 nM
CCOC(=O)c1nc2cnc(Nc3ccccc3)nc2n(-c2ccccc2)c1=O [PTERIDINONE],IC50,[4],180 nM
NC(=O)c1cn(-c2ccc3c(c2)CCC3)c2nc(Nc3ccc(C4CCNCC4)cc3)ncc2c1=O,IC50,[2],51 nM
NC(=O)c1cn(-c2ccc3c(c2)CCC3)c2nc(Nc3ccc(CN4CCOCC4)cc3)ncc2c1=O,IC50,[1],22 nM
same,IC50,[2],27 nM
same,remaining at 10 min,[11],2.5%
same,remaining at 10 min,[12],9.7%
